# Assay results reported in patent publication US20230242558A1, “NICOTINATE AND NICOTINAMIDE RIBOSIDE-BASED COMPOUNDS AND DERIVATIVES THEREOF” (New Frontier Bio, Inc., priority 2022, published 2023).
# Tested on: HaCaT cells
# Assay: NAD assay in HaCaT cells, total NAD level normalized to protein
# Format: cell-based
# Settings: 4 hours incubation, concentration not given
# Method: The biological activity of certain compounds disclosed herein was determined using the following method: • 1. Plate HaCaT cells in 12-well tissue culture plates at a density of 200,000 cells per well in 0.75 mL DMEM growth medium. Incubate overnight at 37° C. in a incubator at 5% CO2. • 2. Next day, prepare dilutions of each compound in growth medium at the desired final concentration. • 3. Incubate cells as above for 4 hours. • 4. After the incubation, wash cell monolayers in each well with 200 uL PBS and add 200 uL 0.25% Trypsin. Let cells lift for 15 minutes. • 5. Once cells are lifted, collect cells into sterile 1.5 mL Eppendorf tube containing 400 uL of DMEM w/2% HI FBS. • 6. Centrifuge tubes for 500×g for 5 min. • 7. Aspirate supernatant and wash cells with 200 uL of cold PBS. • 8. Centrifuge tubes for 500×g for 5 min. • 9. Aspirate supernatant and add 400 μL of cold extraction buffer (provided in the NAD assay kit) and vortex each tube for 10 seconds. • 10. Centrifuge samples at 13,000×g for 10 min to remove insoluble material. • 11. Use a small aliquot of extract to determine total protein concentration by BCA protein assay kit. • 12. Deproteinize samples by filtering them through a 10 kDa cut-off spin filter. Centrifuge at 13,000×g for 10 min. • 13. After cell lysate is filtered, load 25 uL of samples to 96 well plate for NAD assay. • 14. Add 25 uL of extraction buffer to each well with samples to dilute them 1:2. Add 50 uL of standards to appropriate wells. • 15. Set up master reaction mix of cycling buffer and NAD cycling enzyme mix. Add 100 uL of mix to each well and incubate for […]. • 16. Add 10 uL of developer into each well. • 17. Let plate incubate at room temperature for 1 hr. • 18. Stop the reaction by adding 10 uL of stop solution into each well and mix well. • 19. Measure absorbance at 450 nm using plate reader. • 20. Plot standard curve and normalize data to determine total NAD level.
row,SMILES,NAD+ level [pmol/mg protein]
1,O=C(Sc1ccccc1)c1ccc[n+]([C@@H]2O[C@H](CO)[C@@H](O)[C@H]2O)c1,<1
2,O=C(CCCCC[P+](c1ccccc1)(c1ccccc1)c1ccccc1)NCCNC(=O)c1cccnc1,607
3,NCCOC(=O)c1cccnc1,562
4,CCCC(=O)OC[C@H]1O[C@@H]([n+]2cccc(C(=O)O)c2)[C@H](OC(=O)CCC)[C@@H]1OC(=O)CCC,831
5,O=C(Oc1cc(OC(=O)c2cccnc2)c2c(=O)c(O)c(-c3ccc(OC(=O)c4cccnc4)c(OC(=O)c4cccnc4)c3)oc2c1)c1cccnc1,328
6,COC(=O)c1ccc[n+]([C@@H]2O[C@H](COC(C)=O)[C@@H](OC(C)=O)[C@H]2OC(C)=O)c1,323
7,CC(=O)OC[C@H]1O[C@@H]([n+]2cccc(C(=O)O)c2)[C@H](OC(C)=O)[C@@H]1OC(C)=O,311
8,CC1CCC(C(C)C)C(OC(=O)c2cccnc2)C1 (stereo not drawn),<1
9,O=C(CCCC[P+](c1ccccc1)(c1ccccc1)c1ccccc1)NCCOC(=O)c1cccnc1,508
10,CC(=O)OCC1OC([n+]2cccc(C(=O)Oc3c(C)c(C)c4c(c3C)CC[C@@](C)(CCC[C@H](C)CCC[C@H](C)CCCC(C)C)O4)c2)C(OC(C)=O)C1OC(C)=O (stereo partly drawn),301
11,O=C(OCCOCCCCCC[P+](c1ccccc1)(c1ccccc1)c1ccccc1)c1cccnc1,230
12,CC(C)Cc1ccc(C(C)C(=O)NCCNC(=O)c2cccnc2)cc1 (stereo not drawn),697
13,O=C(OCCOCCCCCCCCC[P+](c1ccccc1)(c1ccccc1)c1ccccc1)c1cccnc1,<1
14,O=C(Cc1ccccc1Nc1c(Cl)cccc1Cl)NCCNC(=O)c1cccnc1,338
15,CC(C)(C)OC(=O)CCCCCCCCCCCCCCCCC(=O)NCCNC(=O)c1cccnc1,460
16,CCCCCCCCCCCCCCNC(=O)c1ccc[n+]([C@@H]2O[C@H](CO)[C@@H](O)[C@H]2O)c1,<1
17,CC(=O)OC[C@H]1O[C@@H]([n+]2cccc(C(=O)OC3CC(C)CCC3C(C)C)c2)[C@H](OC(C)=O)[C@@H]1OC(C)=O (stereo partly drawn),258
18,CC1=C(/C=C/C(C)=C/C=C/C(C)=C/C(=O)NCCNC(=O)c2cccnc2)C(C)(C)CCC1,815
19,O=C(OCCCCCC[P+](c1ccccc1)(c1ccccc1)c1ccccc1)c1cccnc1,<1
20,CC(=O)OC[C@H]1O[C@@H]([n+]2cccc(C(=O)NCCNC(=O)c3ccc[n+]([C@@H]4O[C@H](COC(C)=O)[C@@H](OC(C)=O)[C@H]4OC(C)=O)c3)c2)[C@H](OC(C)=O)[C@@H]1OC(C)=O,354

row,SMILES,NAD+ level [pmol/mg protein]
1,CCCCCc1cc(OC(=O)c2cccnc2)c2c(c1)OC(C)(CCC=C(C)C)C=C2 (stereo not drawn),375
2,O=C(NCCCCCC[P+](c1ccccc1)(c1ccccc1)c1ccccc1)c1ccc[n+]([C@@H]2O[C@H](CO)[C@@H](O)[C@H]2O)c1,285
3,O=C(NCC[P+](c1ccccc1)(c1ccccc1)c1ccccc1)c1cccnc1,466
4,CC(=O)OC[C@H]1O[C@@H]([n+]2cccc(C(=O)Sc3ccccc3)c2)[C@H](OC(C)=O)[C@@H]1OC(C)=O,<1
5,CC(=O)OC[C@H]1O[C@@H]([n+]2cccc(C(=O)OCCOC(=O)c3ccc[n+]([C@@H]4O[C@H](COC(C)=O)[C@@H](OC(C)=O)[C@H]4OC(C)=O)c3)c2)[C@H](OC(C)=O)[C@@H]1OC(C)=O,655
6,CCCCCCCCCCCCCCOC(=O)c1ccc[n+]([C@@H]2O[C@H](COP(=O)([O-])O)[C@@H](O)[C@H]2O)c1,475
7,O=C(OC[P+](c1ccccc1)(c1ccccc1)c1ccccc1)c1cccnc1,319
8,CC(=O)OC[C@H]1O[C@@H]([n+]2cccc(C(=O)OC(C)(C)C)c2)[C@H](OC(C)=O)[C@@H]1OC(C)=O,<1
9,CC(=O)OC[C@H]1O[C@@H]([n+]2cccc(C(=O)NCCCCCC[P+](c3ccccc3)(c3ccccc3)c3ccccc3)c2)[C@H](OC(C)=O)[C@@H]1OC(C)=O,565
10,O=C(Oc1ccc(/C=C/c2cc(O)cc(O)c2)cc1)c1ccc[n+]([C@@H]2O[C@H](CO)[C@@H](O)[C@H]2O)c1,94
11,CC(=O)OC[C@H]1O[C@@H]([n+]2cccc(C(=O)Oc3ccc(/C=C/c4cc(OC(C)=O)cc(OC(C)=O)c4)cc3)c2)[C@H](OC(C)=O)[C@@H]1OC(C)=O,<1
12,O=C(NCc1ccccc1)c1ccc[n+]([C@@H]2O[C@H](CO)[C@@H](O)[C@H]2O)c1,274
13,CC1=C(/C=C/C(C)=C/C=C/C(C)=C/C(=O)OCCOC(=O)c2cccnc2)C(C)(C)CCC1,788
14,O=C(OCCC[P+](c1ccccc1)(c1ccccc1)c1ccccc1)c1cccnc1,576
15,O=C(CCCC[P+](c1ccccc1)(c1ccccc1)c1ccccc1)NCCNC(=O)c1cccnc1,495
16,CC1CCC(C(C)C)C(OC(=O)c2ccc[n+]([C@@H]3O[C@H](COP(=O)([O-])O)[C@@H](O)[C@H]3O)c2)C1 (stereo partly drawn),472
17,O=C(OCc1ccccc1)c1ccc[n+]([C@@H]2O[C@H](CO)[C@@H](O)[C@H]2O)c1,463
18,O=C(Cc1ccccc1Nc1c(Cl)cccc1Cl)OCCOC(=O)c1cccnc1,<1
19,O=C(NCCCCCC[P+](c1ccccc1)(c1ccccc1)c1ccccc1)c1cccnc1 [drawing 171],217
20,O=C(NCCNCCCCCCCCC[P+](c1ccccc1)(c1ccccc1)c1ccccc1)c1cccnc1,395

row,SMILES,NAD+ level [pmol/mg protein]
1,CC(C)(C)OC(=O)c1ccc[n+]([C@@H]2O[C@H](CO)[C@@H](O)[C@H]2O)c1,1162
2,O=C(NCCNCCC[P+](c1ccccc1)(c1ccccc1)c1ccccc1)c1cccnc1,391
3,CC(=O)OC[C@H]1O[C@@H]([n+]2cccc(C(=O)OCc3ccccc3)c2)[C@H](OC(C)=O)[C@@H]1OC(C)=O,426
4,CC(=O)Oc1cc(/C=C/c2ccc(OC(=O)c3cccnc3)cc2)cc(OC(C)=O)c1,122
5,CC(=O)OC[C@H]1O[C@@H]([n+]2cccc(C(=O)NCCC[P+](c3ccccc3)(c3ccccc3)c3ccccc3)c2)[C@H](OC(C)=O)[C@@H]1OC(C)=O,292
6,O=C(CCCCC[P+](c1ccccc1)(c1ccccc1)c1ccccc1)NCCOC(=O)c1cccnc1,<1
7,CC(=O)OC[C@H]1O[C@@H]([n+]2cccc(C(=O)NCCNC(=O)CCCCC[P+](c3ccccc3)(c3ccccc3)c3ccccc3)c2)[C@H](OC(C)=O)[C@@H]1OC(C)=O,311
8,O=C(NCCCCCC[P+](c1ccccc1)(c1ccccc1)c1ccccc1)c1ccc[n+]([C@@H]2O[C@H](COP(=O)(O)O)[C@@H](O)[C@H]2O)c1 [drawing 172],449
9,O=C(NC[P+](c1ccccc1)(c1ccccc1)c1ccccc1)c1cccnc1,521
10,CCC(=O)OC[C@H]1O[C@@H]([n+]2cccc(C(=O)O)c2)[C@H](OC(=O)CC)[C@@H]1OC(=O)CC,667
11,O=C(O)c1ccc[n+]([C@@H]2O[C@H](COC(=O)c3cccnc3)[C@@H](OC(=O)c3cccnc3)[C@H]2OC(=O)c2cccnc2)c1,656
12,CCOC(=O)c1ccc[n+]([C@@H]2O[C@H](COC(C)=O)[C@@H](OC(C)=O)[C@H]2OC(C)=O)c1,674
13,CC(C)Cc1ccc(C(C)C(=O)OCCOC(=O)c2cccnc2)cc1 (stereo not drawn),539
14,O=C(NCCC[P+](c1ccccc1)(c1ccccc1)c1ccccc1)c1cccnc1,560
15,CC(C)(C)OC(=O)c1ccc[n+]([C@@H]2O[C@H](COP(=O)([O-])O)[C@@H](O)[C@H]2O)c1,<1
16,CC1CCC(C(C)C)C(OC(=O)c2ccc[n+]([C@@H]3O[C@H](CO)[C@@H](O)[C@H]3O)c2)C1 (stereo partly drawn),464
17,CCCCCCCCCCCCCCNC(=O)c1ccc[n+]([C@@H]2O[C@H](COC(C)=O)[C@@H](OC(C)=O)[C@H]2OC(C)=O)c1,<1
18,O=C(Oc1ccc2c(c1)oc(=O)c1cc(O)ccc12)c1cccnc1,681
19,CCCCCCCCCCCCCCOC(=O)c1ccc[n+]([C@@H]2O[C@H](COC(C)=O)[C@@H](OC(C)=O)[C@H]2OC(C)=O)c1,<1
20,CCCCCCCCCCCCCCOC(=O)c1ccc[n+]([C@@H]2O[C@H](CO)[C@@H](O)[C@H]2O)c1,<1
